Data published in ChEMBL document CHEMBL1135961, “Synthesis and biological activity of 8beta-substituted hydrocodone indole and hydromorphone indole derivatives” (Bioorg Med Chem Lett, 2002).

Legend:
Mu-type opioid receptor [1] = molecular target: T1, Mu-type opioid receptor (Cavia porcellus, UniProt P97266); assay: Binding affinity for mu opioid receptor by displacing DAMGO was determined in [35S]-GTP gamma-S binding assay; Inactive; format: functional
[2] = molecular target: T2, Kappa-type opioid receptor (Cavia porcellus, UniProt P41144); assay: Binding affinity for kappa opioid receptor by displacing U-69,593 was determined in [35S]-GTP gamma-S binding assay; Inactive; format: functional
[3] = molecular target: Mu-type opioid receptor (Homo sapiens) (UniProt P35372); assay: Selectivity determined for mu opioid receptor to that of delta opioid receptor
[4] = molecular target: T2, Kappa-type opioid receptor; assay: Binding affinity for kappa opioid receptor by displacing U-69,593 was determined in [35S]GTP gamma-S binding assay; format: functional
[5] = molecular target: Mu-type opioid receptor (Homo sapiens) (UniProt P35372); assay: Selectivity for mu to that of delta opioid receptor was determined in [35S]-GTP gamma-S binding assay
Mu-type opioid receptor [6] = molecular target: T1, Mu-type opioid receptor; assay: Binding affinity for mu opioid receptor by displacing DAMGO was determined in [35S]GTP gamma-S binding assay; format: functional

Mu-type opioid receptor (Homo sapiens), sequence (P35372 whole entry): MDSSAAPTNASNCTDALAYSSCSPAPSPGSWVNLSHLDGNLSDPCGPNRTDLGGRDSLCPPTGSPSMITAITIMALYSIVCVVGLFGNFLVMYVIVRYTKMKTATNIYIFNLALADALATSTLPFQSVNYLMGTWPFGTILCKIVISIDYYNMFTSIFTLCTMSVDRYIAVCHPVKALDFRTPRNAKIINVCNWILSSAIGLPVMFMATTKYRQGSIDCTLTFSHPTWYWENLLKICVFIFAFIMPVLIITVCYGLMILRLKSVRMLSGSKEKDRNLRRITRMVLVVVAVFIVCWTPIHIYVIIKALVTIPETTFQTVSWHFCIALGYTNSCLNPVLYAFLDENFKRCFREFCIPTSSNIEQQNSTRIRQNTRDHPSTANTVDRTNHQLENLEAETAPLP
T1 sequence (P97266 whole entry): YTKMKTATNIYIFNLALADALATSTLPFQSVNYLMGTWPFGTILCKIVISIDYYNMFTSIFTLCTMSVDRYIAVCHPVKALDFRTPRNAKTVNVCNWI
T2 sequence (P41144 whole entry): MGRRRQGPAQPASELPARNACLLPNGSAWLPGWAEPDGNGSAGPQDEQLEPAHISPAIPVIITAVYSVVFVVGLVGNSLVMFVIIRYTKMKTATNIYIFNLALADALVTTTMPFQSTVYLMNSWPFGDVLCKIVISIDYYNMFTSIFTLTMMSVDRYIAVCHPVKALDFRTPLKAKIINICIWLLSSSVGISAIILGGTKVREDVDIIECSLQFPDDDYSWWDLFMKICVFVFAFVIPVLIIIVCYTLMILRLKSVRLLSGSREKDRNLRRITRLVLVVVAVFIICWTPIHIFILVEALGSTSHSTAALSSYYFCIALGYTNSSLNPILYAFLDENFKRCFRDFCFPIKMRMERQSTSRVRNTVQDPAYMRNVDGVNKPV

| SMILES | Ki (Mu-type opioid receptor [1]) | Ki [2] | Ratio [3] | Ki [4] | Ratio [5] | Ki (Mu-type opioid receptor [6]) |
| --- | --- | --- | --- | --- | --- | --- |
| COc1ccc2c3c1O[C@H]1c4[nH]c5ccccc5c4[C@H](C)C4C(C2)N(C)CCC341 (some centres not stated) | > 600 nM | > 350 nM | > 177 |  |  |  |
| C=CC(C)N1CCC23c4c5ccc(O)c4O[C@H]2c2[nH]c4ccccc4c2[C@H](C)C3C1C5 (some centres not stated) |  |  | 120 |  |  |  |
| C[C@H]1c2c([nH]c3ccccc23)[C@@H]2Oc3c(O)ccc4c3C23CCN(CC2CC2)C(C4)C13 (some centres not stated) |  |  | 29 |  |  |  |
| C[C@H]1c2c([nH]c3ccccc23)[C@@H]2Oc3c(O)ccc4c3C23CCN(C)C(C4)C13 (some centres not stated) | > 600 nM |  | 322 | 398 nM |  |  |
| CN1CC[C@]23c4c5ccc(O)c4O[C@H]2c2[nH]c4ccccc4c2C[C@H]3[C@H]1C5 |  |  | 296 | 731 nM | 14 | 202 nM |
| CCCC[C@H]1c2c([nH]c3ccccc23)[C@@H]2Oc3c(OC)ccc4c3C23CCN(C)C(C4)C13 (some centres not stated) | > 600 nM | > 350 nM | > 12 |  |  |  |
| COc1ccc2c3c1O[C@H]1c4[nH]c5ccccc5c4CC4C(C2)N(C)CCC341 (some centres not stated) | > 600 nM | > 350 nM | > 53 |  |  |  |
| CCCC[C@H]1c2c([nH]c3ccccc23)[C@@H]2Oc3c(O)ccc4c3C23CCN(C)C(C4)C13 (some centres not stated) |  |  | 50 | 272 nM | 12 | 561 nM |
